In patent publication US20220395511A1, “COMPOSITIONS AND METHODS FOR INCREASING CELL SURFACE OXYTOCIN RECEPTOR (OXTR)” (Washington University, priority 2021, published 2022):
Entries after “also recorded” stand apart in the source; their conditions may differ. Where two headings read alike, the source gives them in different places.

Experiments:
[1] = molecular target: T1, WT OXTR endogenously expressed in hTERT-HM cells (Homo sapiens, UniProt P30559); assay: Quantitative flow cytometry of cell surface HA-OXTR in hTERT-HM cells; format: cell-based; conditions: for decrease of baseline cell surface OXTR abundance: cycloheximide 25 μg/mL, brefeldin A 5 μg/mL
T1 construct: hTERT-immortalized human myometrial (hTERT-HM) cells, which endogenously express WT OXTR; endogenous in cells; host or cells: hTERT-HM (genome-edited: HA knock-in at the OXTR locus)
T1 sequence (P30559 1-389): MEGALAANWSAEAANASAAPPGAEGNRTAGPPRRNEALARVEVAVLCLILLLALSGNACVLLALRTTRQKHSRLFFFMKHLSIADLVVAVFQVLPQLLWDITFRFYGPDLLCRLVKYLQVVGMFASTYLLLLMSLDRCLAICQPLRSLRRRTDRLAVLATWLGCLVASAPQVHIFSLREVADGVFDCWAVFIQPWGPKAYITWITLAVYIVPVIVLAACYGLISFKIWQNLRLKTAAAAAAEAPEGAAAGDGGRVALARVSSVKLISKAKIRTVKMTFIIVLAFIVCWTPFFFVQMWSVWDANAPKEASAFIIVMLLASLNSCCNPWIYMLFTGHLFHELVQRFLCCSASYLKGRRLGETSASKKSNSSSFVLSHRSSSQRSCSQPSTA
Experimental: These experiments were performed in the hTERT-immortalized human myometrial cell line, which was modified to introduce an N-terminal HA tag upstream of OXTR. […] OXTR was quantified by performing flow cytometry with a fluorescent antibody against HA. TCOT=TC-OT 39 ((2S)—N-[[4-[(4,10-dihydro-1-methylpyrazolo[3,4-b][1,5]benzodiazepin-5(1H)-yl)carbonyl]-2-methylphenyl]methyl]-2-[(hexahydro-4-methyl-1H-1,4-diazepin-1-yl)thioxomethyl]-1-pyrrolidinecarboxamide), partial OXTR agonist. CON=conivaptan (N-[4-(2-methyl-4,5-dihydro-3H-imidazo[4,5-d][1]benzazepine-6-carbonyl)phenyl]-2-phenylbenzamide; also known as YM087), vasopressin inhibitor. TASP=TASP 0390325 (2-(3-Chloro-4-fluorophenyl)-N-(1-methylethyl)-6-[3-(4-morpholinyl)propoxy]-4-oxo-pyrido[2,3-d]pyrimidine-3(4H)-acetamide hydrochloride), vasopressin inhibitor. WAY=WAY 267464 (4-(3,5-Dihydroxybenzyl)-N-(2-methyl-4-[(1-methyl-4,10-dihydropyrazolo[3,4-b][1,5]benzodiazepin-5(1H)-yl)carbonyl]benzyl)piperazine-1-carboxamide), OXTR agonist. TOL=tolvaptan (N-(4-{[(5R)-7-Chloro-5-hydroxy-2,3,4,5-tetrahydro-1H-1-benzazepin-1-yl]carbonyl}-3-methylphenyl)-2-methylbenzamide; also known as OPC41061), vasopressin inhibitor. OPC=OPC 21268 (N-[3-[4-[[4-(3,4-dihydro-2-oxo-1(2H)-quinolinyl)-1-piperidinyl]carbonyl]phenoxy]propyl]-acetamide), vasopressin inhibitor. SSR=SSR 149415 ((2S,4R)-1-[(3R)-5-Chloro-1-[(2,4-dimethoxyphenyl)sulfonyl]-2,3-dihydro-3-(2-methoxyphenyl)-2-oxo-1H-indol-3-yl]-4-hydroxy-N,N-dimethyl-2-pyrrolidinecarboxamide), vasopressin inhibitor. SR=SR49059 ((2S)-1-[[(2R,3S)-5-Chloro-3-(2-chlorophenyl)-1-[(3,4-dimethoxyphenyl)sulfonyl]-2,3-dihydro-3-hydroxy-1H-indol-2-yl]carbonyl]-2-pyrrolidinecarboxamide), vasopressin inhibitor. L371=L371,257 (1-[1-[4-(1-acetylpiperidin-4-yl)oxy-2-methoxybenzoyl]piperidin-4-yl]-4H-3,1-benzoxazin-2-one), OXTR antagonist.
Because specific antibodies to OXTR are not commercially available, CRISPR-Cas9 was used to introduce an HA tag at the N-terminus of OXTR in the hTERT-HM cell line. […]
To determine the mechanism of action of SR49059 and L371,257, hTERT-HM cells were treated for 12 h with cycloheximide (25 μg/mL), which inhibits protein translation, and brefeldin A (5 μg/mL), which blocks protein transport from the endoplasmic reticulum to the Golgi.
The Genome Engineering and iPSC Center at Washington University in St Louis used CRISPR-Cas9 to introduce an HA tag at the N-terminus of the OXTR gene in hTERT-HM cells. After drug incubation, cells were detached with TrypLE Express (Thermo Fisher) before flow cytometry.

WT OXTR = molecular target: T2, WT OXTR (Homo sapiens, UniProt P30559); assay: Quantitative flow cytometry of cell surface WT HA-OXTR-GFP in transfected HEK293T cells; format: cell-based; conditions: for more surface WT OXTR than vehicle-treated cells: HEK293T, WT HA-OXTR-GFP, 10 μM, 16 h
T2 construct: expressed in transfected cells; host or cells: HEK293T (transient)
T2 sequence (P30559 1-389): T1 sequence (P30559 1-389)

[2] = molecular target: T3, WT OXTR in hTERT-HM cells (Homo sapiens, UniProt P30559); assay: Oxytocin-induced IP1 production in hTERT-HM cells; format: cell-based; conditions: for increase of maximal IP1 production: hTERT-HM, N=5 (FIG. 8D)
T3 construct: hTERT-immortalized human myometrial (hTERT-HM) cells, which endogenously express WT OXTR; endogenous in cells; host or cells: hTERT-HM
T3 sequence (P30559 1-389): T1 sequence (P30559 1-389)

OXTR = molecular target: T4, OXTR (Homo sapiens, UniProt P30559); conditions: in words, cited from earlier work
T4 sequence (P30559 1-389): T1 sequence (P30559 1-389)

[3] = hTERT-HM, HA-OXTR, 10 μM, 16 h (overnight)

C[C@@H]1C[C@@H]([C@H](O)CC2CC(=O)NC(=O)C2)C(=O)[C@@H](C)C1 [Cycloheximide]
decrease of baseline cell surface OXTR abundance ([1]; hTERT-HM, 12 h): 18%

COc1cc(OC2CCN(C(C)=O)CC2)ccc1C(=O)N1CCC(N2C(=O)OCc3ccccc32)CC1 [L371,257, 1-[1-[4-(1-acetylpiperidin-4-yl)oxy-2-methoxybenzoyl]piperidin-4-yl]-4H-3,1-benzoxazin-2-one]
more surface WT OXTR than vehicle-treated cells (WT OXTR): 170% | increase of maximal IP1 production [2]: 35% | effect on cell surface OXTR in cells also treated with brefeldin A [1]: no effect | effect on cell surface OXTR in hTERT-HM cells [1]: greatest effect of all the candidate compounds | increase of cell surface OXTR abundance [1]: 2.9 fold | increase of surface OXTR in cells treated with cycloheximide [1]: 20% | increase of surface OXTR localization after 4 h of treatment [1]: more than twofold | surface OXTR localization at 48 h of treatment [1]: remained high | treatment time at which surface OXTR reached a plateau [1]: 6 h

CC(=O)NCCCOc1ccc(C(=O)N2CCC(N3C(=O)CCc4ccccc43)CC2)cc1 [OPC21268, N-[3-[4-[[4-(3,4-dihydro-2-oxo-1(2H)-quinolinyl)-1-piperidinyl]carbonyl]phenoxy]propyl]-acetamide]
reported OXTR affinity (OXTR): medium OXTR affinity

Cc1ccccc1C(=O)Nc1ccc(C(=O)N2CCC[C@@H](O)c3cc(Cl)ccc32)c(C)c1 [OPC41061, N-(4-{[(5R)-7-Chloro-5-hydroxy-2,3,4,5-tetrahydro-1H-1-benzazepin-1-yl]carbonyl}-3-methylphenyl)-2-methylbenzamide]
effect on cell surface OXTR in hTERT-HM cells [1, 3]: increased

COc1ccc(S(=O)(=O)N2c3ccc(Cl)cc3[C@](O)(c3ccccc3Cl)[C@@H]2C(=O)N2CCC[C@H]2C(N)=O)cc1OC [SR49059, (2S)-1-[[(2R,3S)-5-Chloro-3-(2-chlorophenyl)-1-[(3,4-dimethoxyphenyl)sulfonyl]-2,3-dihydro-3-hydroxy-1H-indol-2-yl]carbonyl]-2-pyrrolidinecarboxamide]
effect on cell surface WT OXTR (WT OXTR; HEK293T transfected with WT OXTR): robustly increased | more surface WT OXTR than vehicle-treated cells (WT OXTR): 170% | reported OXTR affinity (OXTR): medium OXTR affinity | increase of maximal IP1 production [2]: 37% | increase of maximal oxytocin response (IP1 accumulation) ([2]; human myometrial (hTERT-HM) cells, 10 μM overnight, N=3 (FIG. 2)): 12% | treatment time at which surface OXTR reached a plateau ([1]; hTERT-HM time course): 6 h | effect on cell surface OXTR in hTERT-HM cells [1, 3]: robustly increased | increase of cell surface OXTR abundance ([1]; hTERT-HM, 10 μM, 16 h): 2.3 fold | increase of surface OXTR localization after 4 h of treatment ([1]; hTERT-HM, 4 h): more than twofold | effect on cell surface OXTR in cells also treated with cycloheximide ([1]; hTERT-HM, 12 h, 10 μM with cycloheximide 25 μg/mL): no effect | effect on cell surface OXTR in cells also treated with brefeldin A ([1]; hTERT-HM, 12 h, with brefeldin A 5 μg/mL): no effect | surface OXTR localization at 48 h of treatment ([1]; hTERT-HM, 48 h): remained high

COc1ccc(S(=O)(=O)N2C(=O)[C@@](c3ccccc3OC)(N3C[C@H](O)C[C@H]3C(=O)N(C)C)c3cc(Cl)ccc32)c(OC)c1 [SSR149415, (2S,4R)-1-[(3R)-5-Chloro-1-[(2,4-dimethoxyphenyl)sulfonyl]-2,3-dihydro-3-(2-methoxyphenyl)-2-oxo-1H-indol-3-yl]-4-hydroxy-N,N-dimethyl-2-pyrrolidinecarboxamide]
reported OXTR affinity (OXTR): medium OXTR affinity

CC(C)NC(=O)Cn1c(-c2ccc(F)c(Cl)c2)nc2ncc(OCCCN3CCOCC3)cc2c1=O.Cl [TASP0390325, 2-(3-Chloro-4-fluorophenyl)-N-(1-methylethyl)-6-[3-(4-morpholinyl)propoxy]-4-oxo-pyrido[2,3-d]pyrimidine-3(4H)-acetamide hydrochloride]
reported OXTR affinity (OXTR; hydrochloride): extremely low affinity; also recorded: antagonist; low

Cc1cc(C(=O)N2Cc3cnn(C)c3Nc3ccccc32)ccc1CNC(=O)N1CCC[C@H]1C(=S)N1CCCN(C)CC1 [TCOT39, (2S)-N-[[4-[(4,10-dihydro-1-methylpyrazolo[3,4-b][1,5]benzodiazepin-5(1H)-yl)carbonyl]-2-methylphenyl]methyl]-2-[(hexahydro-4-methyl-1H-1,4-diazepin-1-yl)thioxomethyl]-1-pyrrolidinecarboxamide]
effect on cell surface OXTR in hTERT-HM cells [1, 3]: decreased

Cc1cc(C(=O)N2Cc3cnn(C)c3Nc3ccccc32)ccc1CNC(=O)N1CCN(Cc2cc(O)cc(O)c2)CC1 [WAY26746, 4-(3,5-Dihydroxybenzyl)-N-(2-methyl-4-[(1-methyl-4,10-dihydropyrazolo[3,4-b][1,5]benzodiazepin-5(1H)-yl)carbonyl]benzyl)piperazine-1-carboxamide]
effect on cell surface OXTR in hTERT-HM cells [1, 3]: no effect

Cc1nc2c([nH]1)CCN(C(=O)c1ccc(NC(=O)c3ccccc3-c3ccccc3)cc1)c1ccccc1-2 [YM087, N-[4-(2-methyl-4,5-dihydro-3H-imidazo[4,5-d][1]benzazepine-6-carbonyl)phenyl]-2-phenylbenzamide]
reported OXTR affinity (OXTR): medium OXTR affinity | effect on cell surface OXTR in hTERT-HM cells [1, 3]: significantly decreased

C[C@H]1CCC/C=C/[C@@H]2C[C@H](O)C[C@H]2[C@H](O)/C=C/C(=O)O1 [brefeldin A]
decrease of baseline cell surface OXTR abundance ([1]; hTERT-HM, 12 h): 62%
